Results on 93 compounds are retold here after PubChem BioAssay AID652239 (Broad Institute, 2013).

Where “and” joins values, the source holds several entries; their conditions need not be identical. Identical values can stand only once. Calls of active or inactive are those of the source. No rule for the calls is given here.

System in one experiment: not listed separately
Description: Cholera quorum inducers, light production in absence of autoinducers, BH1578 strain, dry powder dose (AID 652239). The following applies: V. cholerae BH1578 lux luminescence induction, 6 h; at 35 µM (top of the series).
Turning to `O=C(CC1CCCCC1)Nc1nnc(-c2ccc3c(c2)CCCC3)o1`, the activation was 0.052% (inactive).

Still in this experiment, the particulars now being: V. cholerae BH1578 lux luminescence induction, 6 h; at 80 µM (top of the series).
For the compound `O=C(CSc1nc2c(c(=O)[nH]1)CCCC2)NC1CCCCC1`, the activation was 0.193% (inactive).
Regarding `O=c1ncn(-c2ccc(Cl)c(Cl)c2)c2ccccc12`, the activation was 0.032% (inactive).
As to `O=C(CSc1nc2ccccc2c(=O)[nH]1)NC1CCCCC1`, the activation is 0.004% (inactive).
Still for that read-out and setting: with `COc1ccc2c(=O)ncn(-c3cccc(Cl)c3)c2c1` the figure was 0.036% (inactive); with `O=c1ncn(-c2cccc(Cl)c2)c2ccc(Cl)cc12`, 8.89% (inactive); with `O=c1nc(Cc2ccccc2)n(-c2cccc(Cl)c2)c2ccccc12`, 3.07% (inactive).
As to `COC(=O)c1ccccc1Nc1cccc(Cl)c1`, the activation is 0.61% (inactive).
Same read-out and setting: for `O=C(CC1CCCCC1)Nc1nnc(-c2cccnc2)o1` the value was -0.004% (inactive); for `O=c1ncn(-c2ccc(Cl)cc2)c2ccccc12`, 0.028% (inactive).
As for `CCc1nc(=O)c2ccccc2n1-c1cccc(Cl)c1`, the activation was 0.079% (inactive).
Take `Cc1ccc2cc3c(NC(=O)C4CCCC4)nn(C)c3nc2c1`: the activation is 11.2% (inactive).
On to `O=C(Nc1nnc(-c2ccc3c(c2)CCCC3)o1)C1CCC1`, for which the activation was 0% (inactive).
The same measure, in the same setting: with `O=C(O)c1ccccc1Nc1cccc(Cl)c1` the figure was 0.008% (inactive).
`COc1cccc(-n2cnc(=O)c3ccccc32)c1`: the activation was 2.59% (inactive).
Same read-out and setting: for `Cc1ccc(-n2cnc(=O)c3ccccc32)cc1Cl` the value was 0.07% (inactive); for `O=c1ncn(-c2cccc(Cl)c2)c2cccc(Cl)c12`, 0.031% (inactive).
Same read-out and setting: for `O=C1C(=O)N(Cc2cccc(Cl)c2)c2ccccc21` the value was 0.06% (inactive).
Still for that read-out and setting: for `COc1ccc(-n2cnc(=O)c3ccccc32)cc1Cl` the value was 0.3% (inactive); for `CCOC(=O)c1ccccc1Nc1cccc(Cl)c1`, 0.006% (inactive); for `O=C1C(=O)N(Cc2ccccc2Cl)c2ccccc21`, 0.075% (inactive).
Take `Cc1ccc2c(c1)c(=O)ncn2-c1cccc(Cl)c1`: the activation is 6.29% (inactive).
The same measure, in the same setting: for `O=c1ncn(Cc2ccc(Cl)cc2)c2ccccc12` the value was 0.451% (inactive).
On the same count and under the same terms, with `Cc1ccc2c(=O)ncn(-c3cccc(Cl)c3)c2c1` the figure was 0.04% (inactive).
For the compound `O=c1[nH]cnc2ccccc12`, the activation is 0.09% (inactive).
The same measure, in the same setting: for `O=c1ncn(-c2ccc(F)c(Cl)c2)c2ccccc12` the value was 9.82% (inactive); for `NC(=O)c1ccccc1Nc1ccccc1`, 0.161% (inactive); for `O=C(Nc1nnc(-c2cccc(Cl)c2)o1)C1CCCCC1`, 0.061% (inactive).
The same measure, in the same setting: with `O=C(Nc1nnc(-c2ccc3c(c2)OCCO3)o1)C1CCCC1` the figure was 1.99% (inactive); with `O=c1ncn(-c2ccccc2Cl)c2ccccc12`, 1.17% (inactive); with `O=C(Nc1nnc(-c2ccc(Cl)cc2)o1)C1CCCCC1`, -0.011% (inactive).
Same read-out and setting: with `Cn1cnc(=O)c2ccccc21` the figure was 0.029% (inactive); with `Cc1ccc2cc3c(NC(=O)c4ccoc4)nn(C)c3nc2c1`, 0.029% (inactive); with `Cc1nc(=O)c2ccccc2n1-c1cccc(Cl)c1`, 18.8% (inactive).
For the compound `O=c1ncn(-c2cccc(Cl)c2)c2cc(Cl)ccc12`, the activation was 0.074% (inactive).
The same measure, in the same setting: with `CCC(C)(C)C(=O)Nc1nnc(-c2ccc3c(c2)OCCO3)o1` the figure was -0.001% (inactive).
Same read-out and setting: for `NC(=O)c1ccccc1Nc1cccc(Cl)c1` the value was 0.057% (inactive).
Same read-out and setting: with `O=c1nc(-c2ccccc2)n(-c2cccc(Cl)c2)c2ccccc12` the figure was -0.006% (inactive).

The same experiment, now with this note: V. cholerae BH1578 lux luminescence induction, 6 h; at 100 µM (top of the series).
Turning to `COc1ccc(S(=O)(=O)Nc2nnc(-c3ccc4c(c3)OCCO4)o2)cc1`, the activation was 0.003% (inactive).
As for `O=C(Nc1nnc(C2CCCC2)o1)C1CCCCC1`, the activation was -0.003% (inactive).
Still for that read-out and setting: for `Cc1ccc2cc3c(NC(=O)c4ccccn4)nn(C)c3nc2c1` the value was -0.001% (inactive).
The same measure, in the same setting: with `Cc1ccc2cc3c(NC(=O)Cc4ccco4)nn(C)c3nc2c1` the figure was 0.407% (inactive).
The same measure, in the same setting: for `COc1ccc(-c2nnc(NC(=O)C3CCCCC3)o2)cc1` the value was 17.9% (inactive); for `O=C(Nc1nnc(-c2ccc3c(c2)OCCO3)o1)C1CC1`, 0.001% (inactive).
Turning to `C(=N\c1nnc(-c2ccc3c(c2)OCCO3)o1)/c1ccccc1`, the activation is 0.004% (inactive).
The same measure, in the same setting: for `Cn1ccc(NC(=O)c2ccco2)n1` the value was 0.036% (inactive); for `O=C(Nc1nnc(-c2cccnc2)o1)C1CCC1`, -0.001% (inactive).
The same measure, in the same setting: for `COc1ccc(-c2nnc(NC(C)=O)o2)cc1` the value was 0.028% (inactive); for `O=C(Nc1nnc(-c2ccccc2Cl)o1)C1CCCCC1`, 0.003% (inactive).
For `COc1cccc(-c2nnc(NC(=O)C3CCCCC3)o2)c1`, the activation is -0.002% (inactive).
Regarding `O=S(=O)(Nc1nnc(-c2ccc3c(c2)OCCO3)o1)c1ccc(Cl)cc1`, the activation is -0.004% (inactive).
On the same count and under the same terms, with `CCn1nnnc1/N=C/c1ccc(N2CCCCC2)cc1` the figure was 0.106% (inactive); with `CC(C)(C)OC(=O)N1CCC(C(=O)Nc2nnc(-c3ccc4c(c3)OCCO4)o2)CC1`, 0.011% (inactive).
Same read-out and setting: for `O=C(Cc1ccc(-c2ccccc2)cc1)NC1CNC1` the value was 0.01% (inactive); for `CN(C)/C=N/c1nnc(-c2ccc3c(c2)OCCO3)o1`, 0.022% (inactive).
The same measure, in the same setting: with `O=C(Nc1nnc(-c2ccc3c(c2)OCCO3)o1)C1CCC1` the figure was 0.037% (inactive).
For `c1ccc(CNc2nnc(-c3ccc4c(c3)OCCO4)o2)cc1`, the activation was 0.001% (inactive).
The same measure, in the same setting: for `O=C(Nc1nnc(-c2ccc3c(c2)OCCO3)o1)C(F)(F)c1ccccc1` the value was -0.004% (inactive); for `CCn1nnnc1NC(C)c1ccc(N2CCCC2)cc1` (stereo not drawn), 11.5% (inactive); for `CCn1nnnc1N`, -0.013% (inactive).
Regarding `Cn1nc(NC(=O)c2ccco2)c2cc3ccc(C(C)(C)C)cc3nc21`, the activation is 0% (inactive).
Same read-out and setting: for `Cc1ccc2cc3c(NC(=O)c4ccc(C)o4)nn(C)c3nc2c1` the value was 1.77% (inactive); for `CN1CCC(C(=O)Nc2nnc(-c3ccc4c(c3)OCCO4)o2)CC1`, 0.02% (inactive); for `Cc1ccc2cc3c(NC(=O)c4cc5ccccc5o4)nn(C)c3nc2c1`, 0.014% (inactive).
The same measure, in the same setting: with `CC(C)c1ccc2cc3c(NC(=O)c4ccco4)nn(C)c3nc2c1` the figure was 0.153% (inactive); with `O=C(Nc1nnc(-c2ccncc2)o1)C1CCC1`, 0.028% (inactive).

Another experiment relates to V. cholerae BH1578 lux luminescence induction, 6 h. The description is as above.
Details: not given
`COc1ccccc1-c1nnc(NC(=O)C2CCCCC2)o1`: the AC40 was > 100 µM (inactive).
Still for that read-out and setting: for `O=c1ncn(-c2cccc(Cl)c2)c2ccccc12` the value was 14.1 µM and 31 µM; for `Cc1cc2nc3c(cc2cc1F)c(NC(=O)c1ccco1)nn3C`, 37.2 µM; for `CCc1ccc2cc3c(NC(=O)c4ccco4)nn(C)c3nc2c1`, 58.9 µM.
Take `Cc1cc(F)c2cc3c(NC(=O)c4ccco4)nn(C)c3nc2c1`: the AC40 is > 100 µM (inactive).
Same read-out and setting: with `O=C(Nc1nnc(-c2ccc3c(c2)OCCO3)o1)C1CCCCCC1` the figure was > 100 µM (inactive); with `CC(C)(C)COC(=O)CSc1n[nH]c(=O)[nH]c1=O`, 12.5 µM.
For `Cc1cccc(-n2cnc(=O)c3ccccc32)c1`, the AC40 is 75.9 µM.
On the same count and under the same terms, with `Cc1cc2cc3c(NC(=O)c4ccco4)nn(C)c3nc2cc1C` the figure was 42.4 µM.
In the case of `O=C(Nc1nnc(-c2cccnc2)o1)C1CCCCC1`, the AC40 was > 100 µM (inactive).
Same read-out and setting: with `Cn1nc(NC(=O)c2ccco2)c2cccnc21` the figure was 22.2 µM; with `Cc1cc(F)cc2nc3c(cc12)c(NC(=O)c1ccco1)nn3C`, 89.6 µM; with `O=C(Nc1nnc(-c2ccc3c(c2)OCCO3)o1)C1CCCCC1`, 7.31 µM and 2.33 µM.
The same measure, in the same setting: with `O=C(Cc1ccc(-c2ccccc2)cc1)NC1COC1` the figure was > 100 µM (inactive); with `COc1ccc2cc3c(NC(=O)c4ccco4)nn(C)c3nc2c1`, 3.82 µM; with `CCCCCCCCCC(=O)C(O)CC` (stereo not drawn), 5.27 µM.
Still for that read-out and setting: for `O=c1ncn(-c2cccc(F)c2)c2ccccc12` the value was 33.8 µM.
Consider `O=c1ncn(-c2ccccc2)c2ccccc12`, for which the AC40 is > 80 µM (inactive).
The same measure, in the same setting: with `Cc1ccc2cc3c(NC(=O)c4ccco4)nn(C)c3nc2c1` the figure was 11.6 µM and 16.6 µM; with `CCn1nnnc1NCc1ccc(C(C)C)cc1`, 0.563 µM.
For the compound `CCCCCCCCCC(=O)[C@H](O)CC` (racemic), the AC40 is 14.1 µM.
Still for that read-out and setting: with `Cn1nc(NC(=O)c2ccco2)c2cc3ccccc3nc21` the figure was 5.43 µM; with `Cn1nc(NC(=O)c2ccco2)c2ccccc21`, > 100 µM (inactive).
On the same count and under the same terms, for `O=C(Cc1ccc(-c2ccccc2)cc1)NC1CCC1` the value was 1.26 µM; for `O=c1ncn(-c2cc(Cl)cc(Cl)c2)c2ccccc12`, 4.71 µM.
Turning to `O=C(Cc1ccc(-c2ccccc2)cc1)N[C@@H]1CCOC1` (racemic), the AC40 was 96.9 µM.
On the same count and under the same terms, for `Cc1ccc2cc3c(NC(=O)c4cccs4)nn(C)c3nc2c1` the value was > 80 µM (inactive).
